Literature values in US8343544B2, “Oral sustained-release tablet” (Kyorin Pharmaceutical Co., Ltd., priority 2003, dated 2013).

Conditions: conventional preparation

absorption after an oral administration: rapidly absorbed
half-life (oral): relatively short
Compound: Cc1nccn1CCC(C(N)=O)(c1ccccc1)c1ccccc1 [KRP-197, 4-(2-methyl-1-imidazolyl)-2,2-diphenylbutylamide]
